Test results as given in US12084415B2, “Biomolecule-polymer-pharmaceutical agent conjugates for delivering the pharmaceutical agent” (Massachusetts Institute of Technology, priority 2021, dated 2024).

Test system: BT474 xenograft tumor
Test: Antitumor efficacy in BT474 xenograft tumor model
Details: for tumor volume at day 30: 3 doses
[1] = PROTAC (ARV771) payload, 3 doses once a week

Method: The antitumor efficacy was monitored thorough the measurement of tumor volume size.
We used the ABC platform for antibody targeted delivery of PROTAC to tumors for cancer therapy. We chose ARV771 as the payload. We used PROTAC-ABC (ABC_ARV771) to perform in vivo anti-cancer study. The HER2 overexpressed BT474 xenograft mice model was also used for this study. 6 different treatments were performed on mice bearing ˜50 mm^3 volume tumor. 3 doses for treatment were performed once a week.

Q: Which “tumor volume at day 30” value (PROTAC (ARV771) payload) does the source give for `Cc1ncsc1-c1ccc([C@H](C)NC(=O)[C@@H]2C[C@@H](O)CN2C(=O)[C@@H](NC(=O)COCCCOCCNC(=O)C[C@@H]2N=C(c3ccc(Cl)cc3)c3c(sc(C)c3C)-n3c(C)nnc32)C(C)(C)C)cc1` [ARV771] here?
A: Its value is “no therapeutic effects”.

Q: And the tumor volume [1]?
A: The tumor volume was “little therapeutic effects”.

Q: What does the source list for `Cc1sc2c(c1C)C(c1ccc(Cl)cc1)=N[C@@H](CC(=O)Nc1ccc(OCCOCCOCCOCCNc3cccc4c3C(=O)N(C3CCC(=O)NC3=O)C4=O)cc1)c1nnc(C)n1-2` (some centres unmarked) [ARV825]?
A: tumor volume at day 30 (PROTAC (ARV771) payload): no therapeutic effects; tumor volume [1]: little therapeutic effects

Q: How did the tumor volume (one dose injection, comparison with Kadcyla) turn out when ado-trastuzumab emtansine [ADC] was run?
A: Its tumor volume is “good anticancer efficiency”.
